Laboratory results from the supplement of paper PMC10307832.

Tests used:
Experiment in all cases: relative viability (nuclei count vs DMSO), 5 days (fraction); higher = more cells survive
IA-LM = system: IA-LM
How it was run: (§1)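 Lung cancer cell lines in 1536-well plates got either a single drug or a fixed anchor-drug dose together with five library-drug doses (not always all listed) in √10 steps, by pin tool, on the day after seeding. Nuclei were counted after 5 days, and relative viability is the treated-to-vehicle ratio of nuclei counts. Values are medians of duplicate plates.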

NCI-H1975 = system: NCI-H1975
How it was run: as §1

HOP-62 = system: HOP-62
How it was run: as §1

SK-MES-1 = system: SK-MES-1
How it was run: as §1

NCI-H520 = system: NCI-H520
How it was run: as §1

NCI-H2009 = system: NCI-H2009
How it was run: as §1

COR-L 105 = system: COR-L 105
How it was run: as §1

NCI-H1650 = system: NCI-H1650
How it was run: as §1

COR-L23 = system: COR-L23
How it was run: as §1

EPLC-272H = system: EPLC-272H
How it was run: as §1

LK-2 = system: LK-2
How it was run: as §1

NCI-H2347 = system: NCI-H2347
How it was run: as §1

For `Nc1cccc2c1CN(C1CCC(=O)NC1=O)C2=O` (stereo unspecified) [Lenalidomide] + CS(=O)(=O)N1CCN(Cc2cc3nc(-c4cccc5[nH]ncc45)nc(N4CCOCC4)c3s2)CC1 [Pictilisib] (partner 1 µM), the relative viability (IA-LM; first compound 0.253 µM) was 0.37, the relative viability (IA-LM; first compound 0.8 µM) was 0.375 and the relative viability (IA-LM; first compound 2.53 µM) was 0.338. For the same molecule, the relative viability (IA-LM; first compound 8 µM) was 0.359, the relative viability (NCI-H1975; first compound 0.253 µM) was 0.316 and the relative viability (NCI-H1975; first compound 0.8 µM) was 0.228. For the same molecule, the relative viability (NCI-H1975; first compound 2.53 µM) was 0.278, the relative viability (NCI-H1975; first compound 8 µM) was 0.223 and the relative viability (HOP-62; first compound 0.253 µM) was 0.627. For the same molecule, the relative viability (HOP-62; first compound 0.8 µM) was 0.834, the relative viability (HOP-62; first compound 2.53 µM) was 0.922 and the relative viability (HOP-62; first compound 8 µM) was 0.535. For the same molecule, the relative viability (SK-MES-1; first compound 0.253 µM) was 0.373, the relative viability (SK-MES-1; first compound 0.8 µM) was 0.482 and the relative viability (SK-MES-1; first compound 2.53 µM) was 0.403. The relative viability (SK-MES-1; first compound 8 µM) was 0.336, the relative viability (NCI-H520; first compound 0.253 µM) was 0.353 and the relative viability (NCI-H520; first compound 0.8 µM) was 0.362. It also gave a relative viability (NCI-H520; first compound 2.53 µM) of 0.293, a relative viability (NCI-H520; first compound 8 µM) of 0.259 and a relative viability (NCI-H2009; first compound 0.253 µM) of 0.852. For the same molecule, the relative viability (NCI-H2009; first compound 0.8 µM) was 1.01, the relative viability (NCI-H2009; first compound 2.53 µM) was 0.941 and the relative viability (NCI-H2009; first compound 8 µM) was 0.768. It also gave a relative viability (COR-L 105; first compound 0.253 µM) of 0.278, a relative viability (COR-L 105; first compound 0.8 µM) of 0.398 and a relative viability (COR-L 105; first compound 2.53 µM) of 0.554. It also gave a relative viability (COR-L 105; first compound 8 µM) of 0.363, a relative viability (NCI-H1650; first compound 0.253 µM) of 0.562 and a relative viability (NCI-H1650; first compound 0.8 µM) of 0.441. The relative viability (NCI-H1650; first compound 2.53 µM) was 0.731, the relative viability (NCI-H1650; first compound 8 µM) was 0.637 and the relative viability (COR-L23; first compound 0.253 µM) was 0.778. It also gave a relative viability (COR-L23; first compound 0.8 µM) of 0.7, a relative viability (COR-L23; first compound 2.53 µM) of 0.924 and a relative viability (COR-L23; first compound 8 µM) of 0.64. The relative viability (EPLC-272H; first compound 0.253 µM) was 0.325, the relative viability (EPLC-272H; first compound 2.53 µM) was 0.361 and the relative viability (EPLC-272H; first compound 8 µM) was 0.274. For the same molecule, the relative viability (LK-2; first compound 0.253 µM) was 0.602, the relative viability (LK-2; first compound 2.53 µM) was 0.599 and the relative viability (LK-2; first compound 8 µM) was 0.538. For the same molecule, the relative viability (NCI-H2347; first compound 0.253 µM) was 0.396, the relative viability (NCI-H2347; first compound 0.8 µM) was 0.634 and the relative viability (NCI-H2347; first compound 2.53 µM) was 0.602. The relative viability (NCI-H2347; first compound 8 µM) was 0.49.
